According to ChEMBL document CHEMBL1133994, “Design and synthesis of sialyl Lewis x mimics as E-selectin inhibitors” (Bioorg Med Chem Lett, 2001):

The compounds below were run against T1, E-selectin (Homo sapiens, UniProt P16581) (assay: In vitro inhibitory activity against Selectin E binding to human recombinant AGP (alpha-1 acid glycoprotein)).
T1 sequence (P16581 whole entry): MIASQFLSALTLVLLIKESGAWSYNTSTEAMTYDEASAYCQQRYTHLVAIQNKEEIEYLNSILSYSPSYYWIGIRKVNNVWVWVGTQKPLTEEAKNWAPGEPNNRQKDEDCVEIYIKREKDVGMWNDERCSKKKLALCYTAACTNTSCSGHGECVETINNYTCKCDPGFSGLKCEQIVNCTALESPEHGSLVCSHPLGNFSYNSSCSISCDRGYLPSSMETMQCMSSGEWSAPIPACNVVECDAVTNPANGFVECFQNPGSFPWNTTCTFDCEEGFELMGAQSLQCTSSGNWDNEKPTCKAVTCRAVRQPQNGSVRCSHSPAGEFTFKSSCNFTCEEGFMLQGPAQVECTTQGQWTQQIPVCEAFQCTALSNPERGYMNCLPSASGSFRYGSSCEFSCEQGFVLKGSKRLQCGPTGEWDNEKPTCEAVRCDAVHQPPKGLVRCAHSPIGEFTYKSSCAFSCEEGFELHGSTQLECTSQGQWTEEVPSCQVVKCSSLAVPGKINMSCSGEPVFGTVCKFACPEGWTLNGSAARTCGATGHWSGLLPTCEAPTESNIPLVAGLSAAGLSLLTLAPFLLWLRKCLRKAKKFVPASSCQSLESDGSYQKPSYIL
Work on `O=C(O)CC[C@H](NC(=O)CC1OC(CO)C(O)C(O)C1O)C(=O)O` (some centres not stated) yielded an IC50 of 3 mM.
`NC(=O)[C@H](Cc1ccccc1)NCC1OC(CC(=O)N[C@@H](CCC(=O)O)C(=O)O)C(O)C(O)C1O` (some centres not stated) gave an IC50 of 6.7 mM.
With `O=C(O)CC[C@@H](NC(=O)CC1OC(CO)C(O)C(O)C1O)C(=O)O` (some centres not stated) the IC50 was 7 mM.
`O=C(O)CC[C@H](NC(=O)CC1OC(CN2CCC(O)(Cc3ccccc3)CC2)C(O)C(O)C1O)C(=O)O` (some centres not stated) gave an IC50 of 1.6 mM.
`O=C(O)CCCc1ccc(NC(=O)CC2OC(CO)C(O)C(O)C2O)cc1` (configuration not stated) was tested, and the IC50 was > 10 mM.
In the case of `O=C(O)CC[C@H](NC(=O)CC1OC(CNc2cc(C(=O)O)cc(C(=O)O)c2)C(O)C(O)C1O)C(=O)O` (some centres not stated), the IC50 is reported as 6 mM.
For `NC(=O)CC[C@@H](NC(=O)CC1OC(CO)C(O)C(O)C1O)C(=O)O` (some centres not stated), the IC50 was > 10 mM.
Compound `CC1CCCC(N(C)CC2OC(CC(=O)N[C@@H](CCC(=O)O)C(=O)O)C(O)C(O)C2O)C1` (some centres not stated) has an IC50 of 8 mM.
`O=C(O)C[C@@H](NC(=O)CC1OC(CO)C(O)C(O)C1O)C(=O)O` (some centres not stated) showed an IC50 of 6 mM.
Compound `O=C(O)CCc1ccc(NC(=O)CC2OC(CO)C(O)C(O)C2O)cc1` (configuration not stated) has an IC50 of 10 mM.
Work on `NCCCC[C@@H](NC(=O)CC1OC(CO)C(O)C(O)C1O)C(=O)O` (some centres not stated) yielded an IC50 of 7 mM.

These compounds were tested against T1, E-selectin (assay: In vitro inhibitory activity against binding of Selectin E to human recombinant AGP (alpha-1 acid glycoprotein) at a concentration of 10 mM; NA- Not active).
`Cc1cccc(N2CCN(CC3OC(CC(=O)N[C@@H](CCC(=O)O)C(=O)O)C(O)C(O)C3O)CC2)c1C` (some centres not stated) was tested, and the IC50 was “Not Active”.
`C[C@@H](Cc1ccccc1)N(C)CC1OC(CC(=O)N[C@@H](CCC(=O)O)C(=O)O)C(O)C(O)C1O` (some centres not stated) was tested, and the IC50 was “Not Active”.
With `NC(=O)CC1OC(CO)C(O)C(O)C1O` (configuration not stated) the IC50 was “Not Active”.
In the case of `O=C(O)C(NCCC1OC(CO)C(O)C(O)C1O)c1cc2ccccc2[nH]1` (configuration not stated), the IC50 is reported as “Not Active”.
For `O=C(O)c1cc(NCCC2OC(CO)C(O)C(O)C2O)cc(C(=O)O)c1` (configuration not stated), the IC50 was “Not Active”.
For `NC(=O)[C@H]1CCCN1CC1OC(CC(=O)N[C@@H](CCC(=O)O)C(=O)O)C(O)C(O)C1O` (some centres not stated), the IC50 was “Not Active”.
